{"source": "PubChem BioAssay AID1745844", "about": "(Carcinogenic Potency Database (CPDB), 2022)", "test_system": "rodent lifetime carcinogenesis bioassay, tumor incidence TD50", "experiment": "carcinogenic potency in animals, long-term in vivo studies, CPDB compilation (AID 1745844)", "note": "Calls of active or inactive are those of the source. No rule for the calls is given here.", "data": [{"smiles": "C=C(Cl)Cl", "values": [{"measurement": "TD50", "setting": "mouse, strain B6C3F1, females, by gavage, site: all sites, lesion: leukemia + lymphoma, dosed 104 weeks, study length 104 weeks", "result": "3.9 mg/kg/day (inactive)"}, {"measurement": "TD50", "setting": "mouse, strain B6C3F1, females, by gavage, site: all sites, lesion: lymphoma, dosed 104 weeks, study length 104 weeks", "result": 4.02, "unit": "mg/kg/day"}, {"measurement": "TD50", "setting": "mouse, strain B6C3F1, females, by gavage, site: any site (literature study), lesion: several types, types named in the paper, dosed 104 weeks, study length 104 weeks", "result": 2.09, "unit": "mg/kg/day"}, {"measurement": "TD50", "setting": "mouse, strain B6C3F1, females, by gavage, site: lung, lesion: alveolar/bronchiolar adenoma + alveolar/bronchiolar carcinoma, dosed 104 weeks, study length 104 weeks", "result": 66.7, "unit": "mg/kg/day"}, {"measurement": "TD50", "setting": "mouse, strain B6C3F1, males, by gavage, site: any site (literature study), lesion: several types, types named in the paper, dosed 104 weeks, study length 104 weeks", "result": "34.8 mg/kg/day (inactive)"}, {"measurement": "TD50", "setting": "mouse, strain B6C3F1, males, by gavage, site: liver, lesion: hepatocellular adenoma + hepatocellular carcinoma + neoplastic nodule, dosed 104 weeks, study length 104 weeks", "result": 133, "unit": "mg/kg/day"}, {"measurement": "TD50", "setting": "mouse, strain B6C3F1, males, by gavage, site: lung, lesion: alveolar/bronchiolar adenoma + alveolar/bronchiolar carcinoma, dosed 104 weeks, study length 104 weeks", "result": 60.4, "unit": "mg/kg/day"}, {"measurement": "carcinogen call", "setting": "mouse, strain Charles River CD1, females, inhaled, site: liver, lesion: hemangiosarcoma, dosed 26 weeks, study length 78 weeks", "result": "negative (inactive)"}, {"measurement": "TD50", "setting": "mouse, strain Charles River CD1, females, inhaled, site: liver, lesion: hemangiosarcoma, dosed 52 weeks, study length 52 weeks", "result": 170, "unit": "mg/kg/day"}, {"measurement": "carcinogen call", "setting": "mouse, strain Charles River CD1, females, inhaled, site: liver, lesion: hepatocellular tumor, dosed 26 weeks, study length 78 weeks", "result": "negative (inactive)"}, {"measurement": "TD50", "setting": "mouse, strain Charles River CD1, females, inhaled, site: liver, lesion: hepatoma, dosed 52 weeks, study length 52 weeks", "result": 170, "unit": "mg/kg/day"}, {"measurement": "carcinogen call", "setting": "mouse, strain Charles River CD1, females, inhaled, site: lung, lesion: alveolar/bronchiolar tumor, dosed 26 weeks, study length 78 weeks", "result": "negative (inactive)"}, {"measurement": "carcinogen call", "setting": "mouse, strain Charles River CD1, males, inhaled, site: liver, lesion: hepatocellular tumor, dosed 26 weeks, study length 78 weeks", "result": "negative (inactive)"}, {"measurement": "carcinogen call", "setting": "mouse, strain Charles River CD1, males, inhaled, site: lung, lesion: alveolar/bronchiolar tumor, dosed 26 weeks, study length 78 weeks", "result": "negative (inactive)"}, {"measurement": "TD50", "setting": "mouse, strain Swiss, females, inhaled, site: any site (literature study), lesion: malignant tumor, dosed 52 weeks, study length 126 weeks", "result": 86.1, "unit": "mg/kg/day"}, {"measurement": "TD50", "setting": "mouse, strain Swiss, females, inhaled, site: any site (literature study), lesion: several types, types named in the paper, dosed 52 weeks, study length 126 weeks", "result": 30.9, "unit": "mg/kg/day"}, {"measurement": "TD50", "setting": "mouse, strain Swiss, females, inhaled, site: liver, lesion: hepatoma, dosed 52 weeks, study length 126 weeks", "result": 858, "unit": "mg/kg/day"}, {"measurement": "TD50", "setting": "mouse, strain Swiss, females, inhaled, site: lung, lesion: several types, types named in the paper, dosed 52 weeks, study length 126 weeks", "result": 124, "unit": "mg/kg/day"}, {"measurement": "TD50", "setting": "mouse, strain Swiss, females, inhaled, site: mammary gland, lesion: several types, types named in the paper, dosed 52 weeks, study length 126 weeks", "result": 80.9, "unit": "mg/kg/day"}, {"measurement": "TD50", "setting": "mouse, strain Swiss, males, inhaled, site: any site (literature study), lesion: malignant tumor, dosed 52 weeks, study length 126 weeks", "result": 50.3, "unit": "mg/kg/day"}, {"measurement": "TD50", "setting": "mouse, strain Swiss, males, inhaled, site: any site (literature study), lesion: several types, types named in the paper, dosed 52 weeks, study length 126 weeks", "result": 17.9, "unit": "mg/kg/day"}, {"measurement": "TD50", "setting": "mouse, strain Swiss, males, inhaled, site: kidney, lesion: adenocarcinoma, dosed 52 weeks, study length 126 weeks", "result": 22, "unit": "mg/kg/day"}, {"measurement": "TD50", "setting": "mouse, strain Swiss, males, inhaled, site: liver, lesion: angiosarcoma, dosed 52 weeks, study length 126 weeks", "result": 566, "unit": "mg/kg/day"}, {"measurement": "TD50", "setting": "mouse, strain Swiss, males, inhaled, site: lung, lesion: several types, types named in the paper, dosed 52 weeks, study length 126 weeks", "result": 59.9, "unit": "mg/kg/day"}, {"measurement": "carcinogen call", "setting": "rat, strain Charles River CD (Sprague-Dawley), females, inhaled, site: liver, lesion: several types, types named in the paper, dosed 26 weeks, study length 78 weeks", "result": "negative (inactive)"}, {"measurement": "carcinogen call", "setting": "rat, strain Charles River CD (Sprague-Dawley), females, inhaled, site: liver, lesion: several types, types named in the paper, dosed 43 weeks, study length 95 weeks", "result": "negative (inactive)"}, {"measurement": "carcinogen call", "setting": "rat, strain Charles River CD (Sprague-Dawley), males, inhaled, site: liver, lesion: several types, types named in the paper, dosed 26 weeks, study length 78 weeks", "result": "negative (inactive)"}, {"measurement": "carcinogen call", "setting": "rat, strain Charles River CD (Sprague-Dawley), males, inhaled, site: liver, lesion: several types, types named in the paper, dosed 43 weeks, study length 95 weeks", "result": "negative (inactive)"}, {"measurement": "carcinogen call", "setting": "rat, strain Fischer 344, females, by gavage, site: any site (literature study), lesion: several types, types named in the paper, dosed 104 weeks, study length 104 weeks", "result": "negative (inactive)"}, {"measurement": "carcinogen call", "setting": "rat, strain Fischer 344, males, by gavage, site: any site (literature study), lesion: several types, types named in the paper, dosed 104 weeks, study length 104 weeks", "result": "negative (inactive)"}, {"measurement": "TD50", "setting": "rat, strain Sprague-Dawley Spartan, females, in drinking water, site: liver, lesion: hepatocellular carcinoma, dosed 104 weeks, study length 104 weeks", "result": "654 mg/kg/day (inactive)"}, {"measurement": "TD50", "setting": "rat, strain Sprague-Dawley Spartan, females, in drinking water, site: liver, lesion: neoplastic nodule, dosed 104 weeks, study length 104 weeks", "result": "414 mg/kg/day (inactive)"}, {"measurement": "TD50", "setting": "rat, strain Sprague-Dawley Spartan, females, in drinking water, site: mammary gland, lesion: fibroadenoma, dosed 104 weeks, study length 104 weeks", "result": "679 mg/kg/day (inactive)"}, {"measurement": "carcinogen call", "setting": "rat, strain Sprague-Dawley Spartan, females, in drinking water, site: pituitary gland, lesion: adenoma, dosed 104 weeks, study length 104 weeks", "result": "negative (inactive)"}, {"measurement": "carcinogen call", "setting": "rat, strain Sprague-Dawley Spartan, females, inhaled, site: liver, lesion: cholangioma, dosed 78 weeks, study length 104 weeks", "result": "negative (inactive)"}, {"measurement": "TD50", "setting": "rat, strain Sprague-Dawley Spartan, females, inhaled, site: mammary gland, lesion: adenocarcinoma, dosed 78 weeks, study length 104 weeks", "result": "49.8 mg/kg/day (inactive)"}, {"measurement": "TD50", "setting": "rat, strain Sprague-Dawley Spartan, females, inhaled, site: mammary gland, lesion: fibroadenoma, dosed 78 weeks, study length 104 weeks", "result": "16 mg/kg/day (inactive)"}, {"measurement": "TD50", "setting": "rat, strain Sprague-Dawley Spartan, males, in drinking water, site: liver, lesion: hepatocellular carcinoma, dosed 104 weeks, study length 104 weeks", "result": "22900 mg/kg/day (inactive)"}, {"measurement": "carcinogen call", "setting": "rat, strain Sprague-Dawley Spartan, males, in drinking water, site: liver, lesion: neoplastic nodule, dosed 104 weeks, study length 104 weeks", "result": "negative (inactive)"}, {"measurement": "carcinogen call", "setting": "rat, strain Sprague-Dawley Spartan, males, inhaled, site: liver, lesion: sarcoma, dosed 78 weeks, study length 104 weeks", "result": "negative (inactive)"}, {"measurement": "TD50", "setting": "rat, strain Sprague-Dawley, females, by gavage, site: liver, lesion: angiosarcoma, dosed 52 weeks, study length 136 weeks", "result": 0.501, "unit": "mg/kg/day"}, {"measurement": "TD50", "setting": "rat, strain Sprague-Dawley, females, inhaled, site: any site (literature study), lesion: several types, types named in the paper, dosed 104 weeks, study length 150 weeks", "result": 119, "unit": "mg/kg/day"}, {"measurement": "TD50", "setting": "rat, strain Sprague-Dawley, females, inhaled, site: liver, lesion: several types, types named in the paper, dosed 104 weeks, study length 150 weeks", "result": 847, "unit": "mg/kg/day"}, {"measurement": "TD50", "setting": "rat, strain Sprague-Dawley, males, by gavage, site: any site (literature study), lesion: several types, types named in the paper, dosed 52 weeks, study length 136 weeks", "result": 5.32, "unit": "mg/kg/day"}]}, {"smiles": "N[C@@H](Cc1c[nH]c2ccccc12)C(=O)O", "values": [{"measurement": "carcinogen call", "setting": "mouse, strain B6C3F1, females, in feed, site: any site (literature study), lesion: several types, types named in the paper, dosed 78 weeks, study length 104 weeks", "result": "negative (inactive)"}, {"measurement": "TD50", "setting": "mouse, strain B6C3F1, females, in feed, site: liver, lesion: hepatocellular adenoma + hepatocellular carcinoma + neoplastic nodule, dosed 78 weeks, study length 104 weeks", "result": 30200, "unit": "mg/kg/day"}, {"measurement": "TD50", "setting": "mouse, strain B6C3F1, males, in feed, site: any site (literature study), lesion: several types, types named in the paper, dosed 78 weeks, study length 104 weeks", "result": "1470 mg/kg/day (inactive)"}, {"measurement": "carcinogen call", "setting": "rat, strain Fischer 344, females, in feed, site: any site (literature study), lesion: several types, types named in the paper, dosed 78 weeks, study length 104 weeks", "result": "negative (inactive)"}, {"measurement": "carcinogen call", "setting": "rat, strain Fischer 344, males, in feed, site: any site (literature study), lesion: several types, types named in the paper, dosed 78 weeks, study length 104 weeks", "result": "negative (inactive)"}, {"measurement": "carcinogen call", "setting": "rat, strain Fischer, males, in feed, site: urinary bladder, lesion: several types, types named in the paper, dosed 100 weeks, study length 104 weeks", "result": "negative (inactive)"}]}, {"smiles": "O=NN1CCC1", "values": [{"measurement": "TD50", "setting": "hamster, strain Syrian Golden, males, by gavage, site: any site (literature study), lesion: several types, types named in the paper, dosed 50 weeks, study length 85 weeks", "result": 8.83, "unit": "mg/kg/day"}, {"measurement": "TD50", "setting": "hamster, strain Syrian Golden, males, by gavage, site: liver, lesion: hepatocellular adenoma, dosed 50 weeks, study length 85 weeks", "result": 10.7, "unit": "mg/kg/day"}, {"measurement": "TD50", "setting": "hamster, strain Syrian Golden, males, by gavage, site: liver, lesion: several types, types named in the paper, dosed 50 weeks, study length 85 weeks", "result": 7.14, "unit": "mg/kg/day"}]}]}
